Results: ChEMBL document CHEMBL1201862, “PubChem BioAssay data set” (2004)
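Results reflect a 48-hour exposure of cells in 96-well plates to compound at five concentrations. The concentration for 50% growth inhibition is given as GI50.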 The source made the active and inactive calls. Cut-off read from the data, not from the text of the source: active = GI50 up to about 1.1 µM and inactive = higher.

Key:
Experiment in all cases: NCI-60 cell line screen, 48 h
SN12C = tested on: SN12C
SK-MEL-2 = tested on: SK-MEL-2
LOX IMVI = tested on: LOX IMVI
IGROV-1 = tested on: IGROV-1
NCI-H522 = tested on: NCI-H522
RPMI-8226 = tested on: RPMI-8226
SF-539 = tested on: SF-539
SK-OV-3 = tested on: SK-OV-3
ACHN = tested on: ACHN
MDA-MB-435 = tested on: MDA-MB-435
UACC-257 = tested on: UACC-257
MOLT-4 = tested on: MOLT-4
NCI/ADR-RES = tested on: NCI/ADR-RES
Malme-3M = tested on: Malme-3M
K562 = tested on: K562
HOP-92 = tested on: HOP-92
HCT-116 = tested on: HCT-116
COLO 205 = tested on: COLO 205
SK-MEL-5 = tested on: SK-MEL-5
CCRF-CEM = tested on: CCRF-CEM

Measured: GI50

COC(=O)c1ccc(Cc2cc(Cc3ccc(C(=O)OC)cc3)cc(Cc3ccc(C(=O)OC)cc3)c2)cc1
inactive: SN12C > 25 µM | SK-MEL-2 > 25 µM | LOX IMVI > 25 µM | IGROV-1 > 25 µM | NCI-H522 > 25 µM | RPMI-8226 > 25 µM | SF-539 > 25 µM | SK-OV-3 > 25 µM | ACHN > 25 µM | MDA-MB-435 > 25 µM | UACC-257 > 25 µM | MOLT-4 > 25 µM | NCI/ADR-RES > 25 µM | Malme-3M > 25 µM | K562 > 25 µM | HOP-92 > 25 µM | HCT-116 > 25 µM

Oc1ccc(/C=N/CC2CCCN3CCCCC23)cc1 (centres undefined)
inactive: SN12C 19.1 µM | SK-MEL-2 19.5 µM | LOX IMVI 21.4 µM | IGROV-1 24.2 µM | COLO 205 27.6 µM | NCI-H522 17.9 µM | RPMI-8226 20.9 µM | SF-539 62.1 µM | SK-OV-3 46 µM | SK-MEL-5 20.5 µM | ACHN 15.5 µM | MDA-MB-435 14.1 µM | UACC-257 24.3 µM | MOLT-4 27.4 µM | NCI/ADR-RES 46.8 µM | Malme-3M 24.7 µM | K562 43.3 µM | HOP-92 24.2 µM | HCT-116 16.7 µM

CO[C@@]12[C@H](COC(N)=O)C3=C(C(=O)C(C)=C(N)C3=O)N1C[C@H]1[C@@H]2N1C (some centres undefined) [PORFIROMYCIN]
active: SN12C 0.782 µM | LOX IMVI 0.794 µM | CCRF-CEM 0.993 µM | ACHN 0.38 µM | MOLT-4 0.543 µM
inactive: SK-MEL-2 13.5 µM | IGROV-1 5.62 µM | COLO 205 2.22 µM | NCI-H522 4.59 µM | RPMI-8226 8.41 µM | SF-539 3.56 µM | SK-OV-3 4.62 µM | SK-MEL-5 1.8 µM | MDA-MB-435 12.3 µM | UACC-257 8.28 µM | NCI/ADR-RES 29.4 µM | Malme-3M 4.1 µM | K562 7.5 µM | HOP-92 5.43 µM | HCT-116 2.22 µM

N=C(N)N/N=C\c1ccc(C2CCNCC2)cc1
inactive: SN12C > 100 µM | SK-MEL-2 > 100 µM | LOX IMVI > 100 µM | IGROV-1 > 100 µM | COLO 205 > 100 µM | CCRF-CEM > 100 µM | NCI-H522 > 100 µM | RPMI-8226 > 100 µM | SF-539 > 100 µM | SK-OV-3 > 100 µM | SK-MEL-5 > 100 µM | ACHN > 100 µM | MDA-MB-435 > 100 µM | UACC-257 > 100 µM | MOLT-4 > 100 µM | NCI/ADR-RES > 100 µM | Malme-3M > 100 µM | K562 > 100 µM | HOP-92 > 100 µM | HCT-116 > 100 µM

O=C(c1cccc(F)c1F)N1CCc2c([nH]c3ccccc23)C1c1ccc2c(c1)OCO2 (centres undefined)
inactive: SN12C 14.3 µM | SK-MEL-2 4.2 µM | LOX IMVI 20.2 µM | IGROV-1 16.2 µM | COLO 205 3.59 µM | CCRF-CEM 5.83 µM | NCI-H522 7.8 µM | RPMI-8226 8.2 µM | SF-539 4.79 µM | SK-OV-3 3.61 µM | SK-MEL-5 3.63 µM | ACHN 18.8 µM | MDA-MB-435 2.23 µM | UACC-257 11.2 µM | MOLT-4 5.24 µM | NCI/ADR-RES 5.56 µM | Malme-3M 28.4 µM | K562 4.22 µM | HOP-92 26.5 µM | HCT-116 8 µM

CCCCCC(C)(C)CCC(=O)OC1OC(COC2OC(COC3OC(CO)C(O)C(O)C3O)C(O)C(O)C2O)C(O)C(O)C1O (centres undefined)
inactive: SN12C > 100 µM | SK-MEL-2 > 100 µM | LOX IMVI > 100 µM | IGROV-1 > 100 µM | COLO 205 > 100 µM | CCRF-CEM > 100 µM | NCI-H522 > 100 µM | RPMI-8226 > 100 µM | SF-539 > 100 µM | SK-OV-3 > 100 µM | SK-MEL-5 > 100 µM | ACHN > 100 µM | MDA-MB-435 > 100 µM | UACC-257 > 100 µM | MOLT-4 > 100 µM | NCI/ADR-RES > 100 µM | Malme-3M > 100 µM | K562 > 100 µM | HOP-92 > 100 µM | HCT-116 > 100 µM

N/C(CSCCSC/C(N)=N/O)=N\O
inactive: SN12C > 100 µM | LOX IMVI > 100 µM | IGROV-1 > 100 µM | COLO 205 > 100 µM | CCRF-CEM > 100 µM | NCI-H522 > 100 µM | RPMI-8226 > 100 µM | SF-539 > 100 µM | SK-OV-3 > 100 µM | SK-MEL-5 > 100 µM | ACHN > 100 µM | MDA-MB-435 > 100 µM | MOLT-4 > 100 µM | NCI/ADR-RES > 100 µM | Malme-3M > 100 µM | K562 > 100 µM | HOP-92 > 100 µM | HCT-116 > 100 µM

CN(C)c1n/c(=N/Cc2cccs2)ss1
inactive: SN12C > 10 µM | LOX IMVI > 5.62 µM | IGROV-1 > 10 µM | COLO 205 > 10 µM | NCI-H522 2.11 µM | RPMI-8226 > 3.04 µM | SF-539 > 10 µM | SK-OV-3 > 10 µM | SK-MEL-5 > 10 µM | ACHN > 10 µM | MDA-MB-435 > 10 µM | UACC-257 > 10 µM | MOLT-4 1.72 µM | NCI/ADR-RES > 10 µM | Malme-3M > 10 µM | K562 3.4 µM | HOP-92 > 10 µM | HCT-116 > 10 µM
active: CCRF-CEM 0.173 µM

CCOc1ccc(NCC2CC/C(=C\C=C\c3ccccc3)C2=O)cc1 (centres undefined)
inactive: SN12C 16.6 µM | SK-MEL-2 > 100 µM | LOX IMVI 11 µM | IGROV-1 12.5 µM | COLO 205 13.7 µM | CCRF-CEM 6.75 µM | NCI-H522 8.61 µM | RPMI-8226 10.9 µM | SF-539 18.9 µM | SK-OV-3 > 100 µM | SK-MEL-5 16 µM | ACHN 30.5 µM | MDA-MB-435 12.2 µM | UACC-257 18.5 µM | MOLT-4 5.2 µM | NCI/ADR-RES 25.7 µM | Malme-3M 22 µM | K562 3.61 µM | HOP-92 16.1 µM | HCT-116 6.98 µM

c1ccc2sc(C3(N4CCCCC4)CCCCCC3)cc2c1
inactive: SN12C 20.4 µM | SK-MEL-2 25.9 µM | LOX IMVI 18.5 µM | IGROV-1 23.4 µM | COLO 205 16.6 µM | CCRF-CEM 13.2 µM | NCI-H522 17.5 µM | RPMI-8226 14.2 µM | SF-539 21 µM | SK-OV-3 25.3 µM | SK-MEL-5 16.6 µM | ACHN 17.6 µM | MDA-MB-435 22.3 µM | UACC-257 18.8 µM | MOLT-4 15.2 µM | NCI/ADR-RES 20.5 µM | Malme-3M 24 µM | K562 16.4 µM | HOP-92 22.1 µM | HCT-116 15.5 µM

COc1cc(C[C@H]2c3cc(OC)c(OC)cc3CCN2C)c(Oc2cc3c(cc2OC)-c2c(OC)c(OC)cc4c2[C@H](C3)N(C)CC4)cc1OC [THALICARPINE]
inactive: SN12C 12.4 µM | SK-MEL-2 10 µM | LOX IMVI 7.21 µM | IGROV-1 10.8 µM | COLO 205 5.75 µM | CCRF-CEM 8.99 µM | NCI-H522 6.89 µM | RPMI-8226 8.04 µM | SF-539 8.28 µM | SK-MEL-5 3.28 µM | ACHN 12.9 µM | MDA-MB-435 5.16 µM | UACC-257 5.13 µM | MOLT-4 6.25 µM | NCI/ADR-RES 11.3 µM | Malme-3M 9.44 µM | K562 4.88 µM | HOP-92 1.78 µM | HCT-116 4.83 µM

O=C(N/N=C(COc1ccccc1Cl)\N=C\c1ccncc1)c1ccncc1
inactive: SN12C > 100 µM | SK-MEL-2 > 100 µM | LOX IMVI > 100 µM | IGROV-1 > 100 µM | COLO 205 > 100 µM | CCRF-CEM > 100 µM | NCI-H522 > 100 µM | RPMI-8226 > 100 µM | SF-539 > 100 µM | SK-OV-3 > 100 µM | ACHN > 100 µM | MDA-MB-435 > 100 µM | UACC-257 > 100 µM | MOLT-4 61.1 µM | NCI/ADR-RES > 100 µM | Malme-3M > 100 µM | K562 > 100 µM | HOP-92 > 100 µM | HCT-116 > 100 µM

Cc1cc(Cc2cc(Cc3cc(C)cc(C(C)(C)C)c3O)c(C)cc2C)c(O)c(C(C)(C)C)c1
inactive: SN12C 16.6 µM | SK-MEL-2 > 100 µM | LOX IMVI 20 µM | IGROV-1 17.3 µM | COLO 205 19.5 µM | CCRF-CEM 16 µM | NCI-H522 14.3 µM | RPMI-8226 20 µM | SK-OV-3 16.7 µM | SK-MEL-5 16.6 µM | ACHN 16.1 µM | MDA-MB-435 13 µM | UACC-257 16.2 µM | MOLT-4 16.9 µM | NCI/ADR-RES 17.9 µM | Malme-3M 12.5 µM | K562 15.7 µM | HOP-92 13.2 µM | HCT-116 16.4 µM

CC(C)(CO)CNc1nc(N)nc(Cl)c1/C=N/O
inactive: SN12C 72.4 µM | SK-MEL-2 39.7 µM | LOX IMVI 12.1 µM | IGROV-1 13 µM | COLO 205 62.7 µM | CCRF-CEM 23 µM | NCI-H522 25.8 µM | RPMI-8226 15.2 µM | SF-539 30.6 µM | SK-MEL-5 5.78 µM | ACHN 28.6 µM | MDA-MB-435 43.9 µM | UACC-257 36.1 µM | MOLT-4 17 µM | NCI/ADR-RES 41.6 µM | Malme-3M 57.4 µM | K562 13.9 µM | HOP-92 19.7 µM | HCT-116 10.2 µM
